Laboratory results from PMC7822874, “Chemoprotective antimalarials identified through quantitative high-throughput screening of Plasmodium blood and liver stage parasites” (Scientific Reports, 2021).
Like-named read-outs stand apart in the source and are kept apart here.

Tests used:
[1] = test system: P. berghei-ANKA-GFP-LucCON liver stage parasites in HepG2-A16-CD81EGFP cells; test: P. berghei liver stage Pb-Luc assay, Method 1 (UCSD, 1536-well); assay type: cell-based, Plasmodium berghei; details: Plasmodium berghei, 48 h, average of 2 wells on a 1536 well plate
[2] = in vitro; details: human, HepG2 cells; n = 1
[3] = test system: luciferase-expressing P. berghei liver stage parasites in HepG2 cells; test: Inhibition of liver-stage development assay (ILSDA), Method 2 (WRAIR, 96-well); assay type: cell-based, Plasmodium berghei; details: for Max Resp (signal direction of the dose response): Method 2, Decrease = decreasing P. berghei viability with dose, Increase = increasing signal, Inactive = no dose response; for AC50: Plasmodium berghei, HepG2, Method 2
[4] = test system: Plasmodium falciparum Dd2 asexual blood stage parasites; test: microbe, parasite or virus in culture; set-up: species or system Plasmodium falciparum Dd2 in human erythrocytes; single determination (one 11-point concentration-response curve); details: Plasmodium falciparum, DD2, Erythrocyte, 72 h; read-out: AC50
[5] = test system: HepG2-A16-CD81EGFP cells; details: average of 2 wells
[6] = in vitro; details: human, HepG2-A16-CD81EGFP cells, uninfected
[7] = test system: T1, Plasmodium falciparum Dd2-attB (parental line), asexual blood stages; test: microbe, parasite or virus in culture; set-up: species or system P. falciparum Dd2-attB in human erythrocytes; SYBR Green-I proliferation assay, Dd2-attB parental line, asexual blood stages; details: Plasmodium falciparum, DD2, Erythrocyte, 72 h, read-out: Calculated / Average Log AC50 (M), mean of replicates, 72 h (converted)
T1 construct: Dd2-attB, the isogenic parental line

## Cc1nc2ccc(NC(=O)c3cc(S(=O)(=O)N(C)c4ccccc4)ccc3Cl)cc2s1 [MLS000393823-01]
[1]; P. berghei liver stage, 1 µM compound treatment (10 mM stocks), replicate 1, normalized, read-out: PbLuc 1uM growth rep1
  activity at 1 µM: 19%
[1]; P. berghei liver stage, 1 µM compound treatment (10 mM stocks), replicate 2, normalized, read-out: PbLuc 1uM growth rep2
  activity at 1 µM: 15%
[1]; P. berghei liver stage, 3 µM compound treatment (10 mM stocks), replicate 1, normalized, read-out: PbLuc 3uM growth rep1
  activity at 3 µM: 3.66%
[1]; P. berghei liver stage, 3 µM compound treatment (10 mM stocks), replicate 2, normalized, read-out: PbLuc 3uM growth rep2
  activity at 3 µM: 5.53%
[2]
  CC50 at 48 h: 9.68 µM
[3]
  Max Resp (signal direction of the dose response): Decrease
[3]; Hill fit, 50% of maximum activity response, read-out: AC50
  AC50: 0.501 µM
[3]; log10 of molar AC50 from Hill fit, read-out: Log AC50 (converted)
  AC50: 0.501 µM
[4]
  AC50: 0.841 µM
[5]; HepG2, 1 µM compound treatment (10 mM stocks), replicate 1, normalized
  HepG2 1uM growth rep1: 61%
[5]; HepG2, 1 µM compound treatment (10 mM stocks), replicate 2, normalized
  HepG2 1uM growth rep2: 56%
[5]; HepG2, 3 µM compound treatment (10 mM stocks), replicate 1, normalized
  HepG2 3uM growth rep1: 59%
[5]; HepG2, 3 µM compound treatment (10 mM stocks), replicate 2, normalized
  HepG2 3uM growth rep2: 60%

## O=c1cc(CSc2ccc(Cl)cc2)nc(-c2ccccn2)[nH]1 [MLS001166297-01]
[1]; 1 uM (compounds provided at 10 mM), column 11, read-out: Pb-Luc (P. berghei liver stage), % of control, lower concentration, first repeat
  activity at 1 µM: 17%
[1]; 1 uM (compounds provided at 10 mM), column 12, read-out: Pb-Luc (P. berghei liver stage), % of control, lower concentration, second repeat
  activity at 1 µM: 15%
[1]; 3 uM (compounds provided at 10 mM), column 8, read-out: Pb-Luc (P. berghei liver stage), % of control, higher concentration, first repeat
  activity at 3 µM: 8%
[1]; 3 uM (compounds provided at 10 mM), column 9, read-out: Pb-Luc (P. berghei liver stage), % of control, higher concentration, second repeat
  activity at 3 µM: 5%
[6]
  viability at 48 h, 1 µM: 92%
  viability at 48 h, 3 µM: 73%
[2]
  CC50 at 48 h: 12.2 µM
[3]
  Max Resp (signal direction of the dose response): Inactive
[4]
  AC50: 5.96 µM

## Cc1cccc(C)c1Nc1c(-c2cccs2)nc2ncccn12 [NCGC00107923-03]
[7]
  AC50: 5.03e-07 M

## O=C(Nc1ccccc1F)c1nc([S+](=O)([O-])Cc2ccccc2F)ncc1Cl [NCGC00117146-03]
[7]
  AC50: 1.34e-05 M

## COCCn1c(C)cc(O)c(C(c2ccc(OC)cc2)N2CCN(c3ccccc3)CC2)c1=O (stereo not shown) [NCGC00133311-02]
[7]
  AC50: 9.29e-06 M

## OCc1cn(Cc2ccc(O)c3ncccc23)cn1 [NCGC00183377-01]
[7]
  AC50: 2.08e-05 M

## O=C(O)c1ccnc2c(O)cccc12 [NCGC00183785-01]
[7]
  AC50: 2e-05 M

## Oc1ccc(CNc2ccccc2Br)c2cccnc12 [NCGC00184890-01]
[7]
  AC50: 1.78e-05 M

## COC(=O)c1ccc(OC(C)=O)c2ncccc12 [NCGC00187997-01]
[7]
  AC50: 1.93e-05 M

## O=C(O)c1ccc(O)c2ncc(N3CCCC3)cc12 [NCGC00189500-01]
[7]
  AC50: 1.72e-05 M

## CN(C)CCCNC(=O)c1ccc(-c2cnc3c(O)ccc(C(=O)O)c3c2)cc1 [NCGC00189503-01]
[7]
  AC50: 1.93e-05 M

## O=C(O)c1ccc(O)c2ncc(N3CCCCC3)cc12 [NCGC00241752-01]
[7]
  AC50: 1.65e-05 M

## O=C(O)c1ccc(O)c2ncc(-c3cccc(N4CCOCC4)c3)cc12 [NCGC00241753-01]
[7]
  AC50: 2.16e-05 M

## O=C(O)c1ccc(O)c2ncc(N3CC(N4CCOCC4)C3)cc12 [NCGC00241761-01]
[7]
  AC50: 1.72e-05 M
